Measurements as given in ChEMBL document CHEMBL4308841, “Synthesis, in vitro antiproliferative activity, and kinase inhibitory effects of pyrazole-containing diarylureas and diarylamides” (Eur J Med Chem, 2018).

What follows are compounds tested on SR (assay: Growth inhibition of human SR cells assessed as cell growth at 0.1 uM incubated for 48 hrs by sulforhodamine B assay relative to control). Conditions: read-out: Activity.
Type: functional

| SMILES | growth at 0.1 µM [%] |
| --- | --- |
| O=C(Nc1cccc(-n2cc(-c3ccncc3)c(-c3cc(O)cc(Cl)c3)n2)c1)c1ccc(N2CCOCC2)c(C(F)(F)F)c1 | 98 |

What follows are compounds tested on K562 (assay: Growth inhibition of human K562 cells assessed as cell growth at 100 uM incubated for 48 hrs by sulforhodamine B assay relative to control). Conditions: K562, 48 h, read-out: Activity.
Type: functional

| SMILES | growth at 100 µM [%] |
| --- | --- |
| O=C(Nc1cccc(-n2cc(-c3ccncc3)c(-c3cc(O)cc(Cl)c3)n2)c1)c1ccc(N2CCOCC2)c(C(F)(F)F)c1 | -24 |

The compounds below were run on COLO 205 (assay: Growth inhibition of human COLO205 cells assessed as cell growth at 0.1 uM incubated for 48 hrs by sulforhodamine B assay relative to control). Conditions: COLO 205, 48 h, read-out: Activity.
Type: functional

| SMILES | growth at 0.1 µM [%] |
| --- | --- |
| O=C(Nc1cccc(-n2cc(-c3ccncc3)c(-c3cc(O)cc(Cl)c3)n2)c1)c1ccc(N2CCOCC2)c(C(F)(F)F)c1 | 104 |

The compounds below were run on RPMI-8226 (assay: Growth inhibition of human RPMI8226 cells assessed as cell growth at 0.01 uM incubated for 48 hrs by sulforhodamine B assay relative to control). Conditions: RPMI-8226, 48 h, read-out: Activity.
Type: functional

| SMILES | growth at 0.01 µM [%] |
| --- | --- |
| O=C(Nc1cccc(-n2cc(-c3ccncc3)c(-c3cc(O)cc(Cl)c3)n2)c1)c1ccc(N2CCOCC2)c(C(F)(F)F)c1 | 104 |

The compounds below were run on ACHN (assay: Growth inhibition of human ACHN cells assessed as cell growth at 100 uM incubated for 48 hrs by sulforhodamine B assay relative to control). Conditions: read-out: Activity.
Type: functional

| SMILES | growth at 100 µM [%] |
| --- | --- |
| O=C(Nc1cccc(-n2cc(-c3ccncc3)c(-c3cc(O)cc(Cl)c3)n2)c1)c1ccc(N2CCOCC2)c(C(F)(F)F)c1 | -20 |

These compounds were tested on SW-620 (assay: Growth inhibition of human SW620 cells assessed as cell growth at 0.1 uM incubated for 48 hrs by sulforhodamine B assay relative to control). Conditions: SW-620, 48 h, read-out: Activity.
Type: functional

| SMILES | growth at 0.1 µM [%] |
| --- | --- |
| O=C(Nc1cccc(-n2cc(-c3ccncc3)c(-c3cc(O)cc(Cl)c3)n2)c1)c1ccc(N2CCOCC2)c(C(F)(F)F)c1 | 105 |

What follows are compounds tested on NCI-H226 (assay: Growth inhibition of human NCI-H226 cells assessed as cell growth at 1 uM incubated for 48 hrs by sulforhodamine B assay relative to control). Conditions: NCI-H226, 48 h, read-out: Activity.
Type: functional

| SMILES | growth at 1 µM [%] |
| --- | --- |
| O=C(Nc1cccc(-n2cc(-c3ccncc3)c(-c3cc(O)cc(Cl)c3)n2)c1)c1ccc(N2CCOCC2)c(C(F)(F)F)c1 | 90 |

The compounds below were run on SK-OV-3 (assay: Growth inhibition of human SKOV3 cells incubated for 48 hrs by sulforhodamine B assay). Conditions: SK-OV-3, 48 h, read-out: GI50.
Type: functional, cell-based

| SMILES | GI50 [µM] |
| --- | --- |
| O=C(Nc1cccc(-n2cc(-c3ccncc3)c(-c3cc(O)cc(Cl)c3)n2)c1)c1ccc(N2CCOCC2)c(C(F)(F)F)c1 | 95.3 |

Same assay, conditions: SK-OV-3, 48 h, read-out: LC50 (the source's name)

| SMILES | CC50 [µM] |
| --- | --- |
| O=C(Nc1cccc(-n2cc(-c3ccncc3)c(-c3cc(O)cc(Cl)c3)n2)c1)c1ccc(N2CCOCC2)c(C(F)(F)F)c1 | > 100 |

Same assay, conditions: SK-OV-3, 48 h, read-out: TGI

| SMILES | TGI [µM] |
| --- | --- |
| O=C(Nc1cccc(-n2cc(-c3ccncc3)c(-c3cc(O)cc(Cl)c3)n2)c1)c1ccc(N2CCOCC2)c(C(F)(F)F)c1 | > 100 |

Same assay, conditions: SK-OV-3, 48 h, read-out: pGI50 (converted)

| SMILES | GI50 [µM] |
| --- | --- |
| O=C(Nc1cccc(-n2cc(-c3ccncc3)c(-c3cc(O)cc(Cl)c3)n2)c1)c1ccc(N2CCOCC2)c(C(F)(F)F)c1 | 9.55 |

Same assay, conditions: SK-OV-3, 48 h, read-out: pLC50 (the source's name) (converted)

| SMILES | CC50 [µM] |
| --- | --- |
| O=C(Nc1cccc(-n2cc(-c3ccncc3)c(-c3cc(O)cc(Cl)c3)n2)c1)c1ccc(N2CCOCC2)c(C(F)(F)F)c1 | > 100 |

Same assay, conditions: SK-OV-3, 48 h, read-out: pTGI (converted)

| SMILES | TGI [µM] |
| --- | --- |
| O=C(Nc1cccc(-n2cc(-c3ccncc3)c(-c3cc(O)cc(Cl)c3)n2)c1)c1ccc(N2CCOCC2)c(C(F)(F)F)c1 | > 100 |

The compounds below were run on LOX IMVI (assay: Growth inhibition of human LOXIMVI cells assessed as cell growth at 100 uM incubated for 48 hrs by sulforhodamine B assay relative to control). Conditions: read-out: Activity.
Type: functional

| SMILES | growth at 100 µM [%] |
| --- | --- |
| O=C(Nc1cccc(-n2cc(-c3ccncc3)c(-c3cc(O)cc(Cl)c3)n2)c1)c1ccc(N2CCOCC2)c(C(F)(F)F)c1 | -45 |

The compounds below were run on MCF7 (assay: Growth inhibition of human MCF7 cells assessed as cell growth at 100 uM incubated for 48 hrs by sulforhodamine B assay relative to control). Conditions: MCF7, 48 h, read-out: Activity.
Type: functional

| SMILES | growth at 100 µM [%] |
| --- | --- |
| O=C(Nc1cccc(-n2cc(-c3ccncc3)c(-c3cc(O)cc(Cl)c3)n2)c1)c1ccc(N2CCOCC2)c(C(F)(F)F)c1 | 14 |

These compounds were tested on T47D (assay: Growth inhibition of human T47D cells assessed as cell growth at 1 uM incubated for 48 hrs by sulforhodamine B assay relative to control). Conditions: read-out: Activity.
Type: functional

| SMILES | growth at 1 µM [%] |
| --- | --- |
| O=C(Nc1cccc(-n2cc(-c3ccncc3)c(-c3cc(O)cc(Cl)c3)n2)c1)c1ccc(N2CCOCC2)c(C(F)(F)F)c1 | 80 |

These compounds were tested on MDA-MB-468 (assay: Growth inhibition of human MDA-MB-468 cells incubated for 48 hrs by sulforhodamine B assay). Conditions: MDA-MB-468, 48 h.
Type: functional, cell-based

| SMILES | IC50 [µM] |
| --- | --- |
| O=C(Nc1cccc(-n2cc(-c3ccncc3)c(-c3cc(O)cc(Cl)c3)n2)c1)c1ccc(N2CCOCC2)c(C(F)(F)F)c1 | 3.42 |

Same assay, conditions: MDA-MB-468, 48 h, read-out: GI50

| SMILES | GI50 [µM] |
| --- | --- |
| O=C(Nc1cccc(-n2cc(-c3ccncc3)c(-c3cc(O)cc(Cl)c3)n2)c1)c1ccc(N2CCOCC2)c(C(F)(F)F)c1 | 3.42 |

Same assay, conditions: MDA-MB-468, 48 h, read-out: LC50 (the source's name)

| SMILES | CC50 [µM] |
| --- | --- |
| O=C(Nc1cccc(-n2cc(-c3ccncc3)c(-c3cc(O)cc(Cl)c3)n2)c1)c1ccc(N2CCOCC2)c(C(F)(F)F)c1 | > 100 |

Same assay, conditions: MDA-MB-468, 48 h, read-out: TGI

| SMILES | TGI [µM] |
| --- | --- |
| O=C(Nc1cccc(-n2cc(-c3ccncc3)c(-c3cc(O)cc(Cl)c3)n2)c1)c1ccc(N2CCOCC2)c(C(F)(F)F)c1 | 43.3 |

Same assay, conditions: MDA-MB-468, 48 h, read-out: pGI50 (converted)

| SMILES | GI50 [µM] |
| --- | --- |
| O=C(Nc1cccc(-n2cc(-c3ccncc3)c(-c3cc(O)cc(Cl)c3)n2)c1)c1ccc(N2CCOCC2)c(C(F)(F)F)c1 | 3.39 |

Same assay, conditions: MDA-MB-468, 48 h, read-out: pLC50 (the source's name) (converted)

| SMILES | CC50 [µM] |
| --- | --- |
| O=C(Nc1cccc(-n2cc(-c3ccncc3)c(-c3cc(O)cc(Cl)c3)n2)c1)c1ccc(N2CCOCC2)c(C(F)(F)F)c1 | > 100 |

Same assay, conditions: MDA-MB-468, 48 h, read-out: pTGI (converted)

| SMILES | TGI [µM] |
| --- | --- |
| O=C(Nc1cccc(-n2cc(-c3ccncc3)c(-c3cc(O)cc(Cl)c3)n2)c1)c1ccc(N2CCOCC2)c(C(F)(F)F)c1 | 43.7 |

Each compound was assayed on UO-31 (assay: Growth inhibition of human UO31 cells assessed as cell growth at 1 uM incubated for 48 hrs by sulforhodamine B assay relative to control). Conditions: UO-31, 48 h, read-out: Activity.
Type: functional

| SMILES | growth at 1 µM [%] |
| --- | --- |
| O=C(Nc1cccc(-n2cc(-c3ccncc3)c(-c3cc(O)cc(Cl)c3)n2)c1)c1ccc(N2CCOCC2)c(C(F)(F)F)c1 | 57 |
